Earlier results, collected in patent publication EP3501609A1 (Zentiva K.S., priority 2017, dated 2019).

solubility (pH 1.2): poorly soluble
solubility in water (pH range of 4.5-8): virtually insoluble
Structure (SMILES): C=CC(=O)N1CCC[C@@H](n2nc(-c3ccc(Oc4ccccc4)cc3)c3c(N)ncnc32)C1 [ibrutinib form A]
